By pIC50 is commonly meant −log10 of the IC50, conventionally taken in molar units. The term remaining activity denotes the activity still measured, relative to the control.

Holding throughout (format): cell-based
One test concerns the target T1, mGAT1 (Mus musculus, UniProt P31648).
T1 construct: expressed in transfected cells; host or cells: HEK293
Briefly: [^3H]GABA uptake assay, HEK293 cells expressing mGAT1. The conditions noted are these: [^3H]GABA uptake; pIC50±SEM. Summed up: (§1)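 HEK293 cells expressing mouse GATs preincubated 25 min at 37 °C with compound in Krebs buffer pH 7.2, then [3H]GABA added: 8 nM plus 32 nM unlabeled for 4 min (mGAT1/3/4), 20 nM plus 20 nM for 10 min (mGAT2). Filtration, scintillation counting; nonspecific uptake with 10 mM (mGAT1/3/4) or 100 mM GABA (mGAT2); pIC50.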

For another test, the target named is T2, mGAT2 (Mus musculus, UniProt P31651).
T2 construct: expressed in transfected cells; host or cells: HEK293
T2 sequence (P31651 1-614): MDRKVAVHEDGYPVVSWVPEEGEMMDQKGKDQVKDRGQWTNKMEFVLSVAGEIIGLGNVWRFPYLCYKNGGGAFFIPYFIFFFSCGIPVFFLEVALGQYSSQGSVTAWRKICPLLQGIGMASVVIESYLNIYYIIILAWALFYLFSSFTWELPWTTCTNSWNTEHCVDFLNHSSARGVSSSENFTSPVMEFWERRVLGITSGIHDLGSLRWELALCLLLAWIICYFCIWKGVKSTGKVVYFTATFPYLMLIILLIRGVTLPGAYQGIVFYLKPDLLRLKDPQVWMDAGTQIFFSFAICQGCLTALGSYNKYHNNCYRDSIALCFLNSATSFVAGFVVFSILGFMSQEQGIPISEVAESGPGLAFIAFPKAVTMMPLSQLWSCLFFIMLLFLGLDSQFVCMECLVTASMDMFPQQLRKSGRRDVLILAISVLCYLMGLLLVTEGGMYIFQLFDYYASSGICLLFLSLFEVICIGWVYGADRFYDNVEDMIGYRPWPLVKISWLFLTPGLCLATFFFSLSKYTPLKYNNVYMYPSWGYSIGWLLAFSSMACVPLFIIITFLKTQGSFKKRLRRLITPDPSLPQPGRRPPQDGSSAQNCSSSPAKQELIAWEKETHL
Put plainly: [^3H]GABA uptake assay, HEK293 cells expressing mGAT2. The conditions noted are these: HEK293; in presence of 100 μM compound. Summed up:
as §1

Another test concerns the target T3, mGAT3 (Mus musculus, UniProt P31649).
T3 construct: expressed in transfected cells; host or cells: HEK293
T3 sequence (P31649 1-602): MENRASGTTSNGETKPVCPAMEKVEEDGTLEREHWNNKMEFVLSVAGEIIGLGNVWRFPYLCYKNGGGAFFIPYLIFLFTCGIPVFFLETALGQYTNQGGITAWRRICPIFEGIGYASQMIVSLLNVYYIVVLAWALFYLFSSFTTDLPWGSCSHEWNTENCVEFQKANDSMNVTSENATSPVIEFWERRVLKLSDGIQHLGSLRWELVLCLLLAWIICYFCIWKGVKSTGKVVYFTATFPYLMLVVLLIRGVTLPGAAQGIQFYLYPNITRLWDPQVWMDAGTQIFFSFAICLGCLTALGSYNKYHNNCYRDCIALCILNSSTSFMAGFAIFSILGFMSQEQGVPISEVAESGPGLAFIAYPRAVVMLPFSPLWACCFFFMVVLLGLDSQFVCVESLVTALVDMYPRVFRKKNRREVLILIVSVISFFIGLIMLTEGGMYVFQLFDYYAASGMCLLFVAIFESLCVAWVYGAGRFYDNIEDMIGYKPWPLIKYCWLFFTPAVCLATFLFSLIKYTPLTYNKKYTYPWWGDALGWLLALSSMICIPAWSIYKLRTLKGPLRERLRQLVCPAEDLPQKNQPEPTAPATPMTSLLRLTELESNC
Put plainly: [^3H]GABA uptake assay, HEK293 cells expressing mGAT3. As to conditions: [^3H]GABA uptake; pIC50±SEM. Summed up:
as §1

A further test deals with T4, mGAT4 (Mus musculus, UniProt P31650).
T4 construct: expressed in transfected cells; host or cells: HEK293
T4 sequence (P31650 1-627): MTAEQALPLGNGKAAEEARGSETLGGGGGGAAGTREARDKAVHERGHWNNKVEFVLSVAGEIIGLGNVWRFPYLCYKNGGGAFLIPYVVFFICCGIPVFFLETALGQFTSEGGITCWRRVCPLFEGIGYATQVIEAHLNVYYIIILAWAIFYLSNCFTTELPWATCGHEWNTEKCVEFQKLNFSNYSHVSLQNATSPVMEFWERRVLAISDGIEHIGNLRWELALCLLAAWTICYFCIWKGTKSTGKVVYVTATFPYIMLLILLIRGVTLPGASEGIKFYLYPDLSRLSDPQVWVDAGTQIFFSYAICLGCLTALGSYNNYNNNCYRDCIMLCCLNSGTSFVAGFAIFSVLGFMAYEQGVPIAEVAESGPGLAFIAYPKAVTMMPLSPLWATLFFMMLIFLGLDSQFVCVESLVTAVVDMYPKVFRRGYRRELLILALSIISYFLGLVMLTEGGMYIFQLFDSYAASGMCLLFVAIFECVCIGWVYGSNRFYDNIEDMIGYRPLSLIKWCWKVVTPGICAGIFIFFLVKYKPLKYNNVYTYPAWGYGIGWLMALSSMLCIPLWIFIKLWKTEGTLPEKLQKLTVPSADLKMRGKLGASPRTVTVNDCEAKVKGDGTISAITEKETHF
Briefly: [^3H]GABA uptake assay, HEK293 cells expressing mGAT4. The conditions noted are these: [^3H]GABA uptake; pIC50±SEM. Summed up: as §1

pIC50: −log10 of the molar value.

For `COc1ccc(C(OCCN2CCCC(C(=O)O)C2)(c2ccc(C=O)cc2)c2ccc(OC)cc2)cc1` (racemic) [5 a, rac‐ 1‐{2‐[(4‐Formylphenyl)bis(4‐methoxyphenyl)methoxy]ethyl}piper‐idine‐3‐carboxylic acid], the pIC50 against mGAT1 is 4.17; against mGAT3, 4.98; against mGAT4, 5.77. Moreover, the remaining activity at 100 µM at mGAT2 was 66.3%.
